Test: molar heat capacity at saturation pressure; xn = mol fraction of the nth substance listed

CCCCn1cc[n+](C)c1.Cc1ccc(S(=O)(=O)[O-])cc1 [1-butyl-3-methylimidazolium tosylate] + O
Conditions | molar heat capacity [J/K/mol]
246.29 K, Crystal, x1 = 0.3 | 181.97
247.04 K, Crystal, x1 = 0.37 | 195.61
247.05 K, Crystal, x1 = 0.83 | 303.46
247.42 K, Crystal, x1 = 0.3 | 183.98
248.02 K, Metastable crystal, x1 = 0.83 | 322.49
248.32 K, Crystal, x1 = 0.37 | 197.76
248.55 K, Crystal, x1 = 0.3 | 185.99
249.21 K, Crystal, x1 = 0.83 | 306.59
249.59 K, Crystal, x1 = 0.37 | 199.9
249.68 K, Crystal, x1 = 0.3 | 188.1
249.95 K, Metastable crystal, x1 = 0.83 | 325.36
250.8 K, Crystal, x1 = 0.3 | 190.22
250.86 K, Crystal, x1 = 0.37 | 202.18
251.37 K, Crystal, x1 = 0.83 | 309.46
251.87 K, Metastable crystal, x1 = 0.83 | 328.49
251.91 K, Crystal, x1 = 0.3 | 192.75
252.13 K, Crystal, x1 = 0.37 | 204.32
253.03 K, Crystal, x1 = 0.3 | 194.97
253.39 K, Crystal, x1 = 0.37 | 206.85
253.52 K, Crystal, x1 = 0.83 | 312.59
253.79 K, Metastable crystal, x1 = 0.83 | 331.88
254.13 K, Crystal, x1 = 0.3 | 197.41
254.64 K, Crystal, x1 = 0.37 | 209.37
255.24 K, Crystal, x1 = 0.3 | 200.05
255.66 K, Crystal, x1 = 0.83 | 315.71
255.7 K, Metastable crystal, x1 = 0.83 | 335.27
255.89 K, Crystal, x1 = 0.37 | 212.02
256.33 K, Crystal, x1 = 0.3 | 202.69
257.13 K, Crystal, x1 = 0.37 | 214.67
257.42 K, Crystal, x1 = 0.3 | 205.55
257.6 K, Metastable crystal, x1 = 0.83 | 339.18
257.79 K, Crystal, x1 = 0.83 | 318.84
258.37 K, Crystal, x1 = 0.37 | 217.57
258.51 K, Crystal, x1 = 0.3 | 208.4
259.5 K, Metastable crystal, x1 = 0.83 | 342.83
259.59 K, Crystal, x1 = 0.3 | 211.36
259.6 K, Crystal, x1 = 0.37 | 220.6
259.92 K, Crystal, x1 = 0.83 | 322.23
260.66 K, Crystal, x1 = 0.3 | 214.43
260.83 K, Crystal, x1 = 0.37 | 223.76
261.38 K, Metastable crystal, x1 = 0.83 | 346.22
261.73 K, Crystal, x1 = 0.3 | 217.6
262.04 K, Crystal, x1 = 0.83 | 325.62
262.05 K, Crystal, x1 = 0.37 | 227.04
262.8 K, Crystal, x1 = 0.3 | 221.09
263.25 K, Metastable crystal, x1 = 0.83 | 349.61
263.26 K, Crystal, x1 = 0.37 | 230.45
263.85 K, Crystal, x1 = 0.3 | 224.58
264.15 K, Crystal, x1 = 0.83 | 329.27
264.46 K, Crystal, x1 = 0.37 | 233.98
264.9 K, Crystal, x1 = 0.3 | 228.28
265.12 K, Metastable crystal, x1 = 0.83 | 353.26
265.66 K, Crystal, x1 = 0.37 | 238.02
265.94 K, Crystal, x1 = 0.3 | 232.09
266.24 K, Crystal, x1 = 0.83 | 333.18
266.85 K, Crystal, x1 = 0.37 | 241.93
266.97 K, Crystal, x1 = 0.3 | 236
266.99 K, Metastable crystal, x1 = 0.83 | 356.38
268 K, Crystal, x1 = 0.3 | 240.55
268.03 K, Crystal, x1 = 0.37 | 246.09
268.33 K, Crystal, x1 = 0.83 | 337.35
268.85 K, Metastable crystal, x1 = 0.83 | 360.03
269.01 K, Crystal, x1 = 0.3 | 244.56
269.2 K, Crystal, x1 = 0.37 | 250.51
270.02 K, Crystal, x1 = 0.3 | 249.64
270.37 K, Crystal, x1 = 0.37 | 255.18
270.4 K, Crystal, x1 = 0.83 | 342.31
270.7 K, Metastable crystal, x1 = 0.83 | 363.68
271.02 K, Crystal, x1 = 0.3 | 254.4
271.52 K, Crystal, x1 = 0.37 | 259.98
272.01 K, Crystal, x1 = 0.3 | 258.84

From the NIST ThermoML archive (doi:10.1021/je700152c)
